# What was measured:
# [1] = target: T1, Thromboxane A2 receptor (Homo sapiens, UniProt P21731)
# T1 sequence (P21731 whole entry): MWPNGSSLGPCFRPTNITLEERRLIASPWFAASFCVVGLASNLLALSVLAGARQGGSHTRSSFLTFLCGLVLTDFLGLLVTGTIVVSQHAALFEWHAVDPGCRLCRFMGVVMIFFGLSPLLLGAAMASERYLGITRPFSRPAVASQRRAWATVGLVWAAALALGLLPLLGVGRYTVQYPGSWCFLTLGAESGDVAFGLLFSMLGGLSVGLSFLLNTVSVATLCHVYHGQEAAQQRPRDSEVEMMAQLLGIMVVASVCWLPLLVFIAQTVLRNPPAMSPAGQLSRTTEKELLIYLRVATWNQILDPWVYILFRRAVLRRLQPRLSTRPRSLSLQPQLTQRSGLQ
# [2] = target: 5-hydroxytryptamine receptor 2B (Homo sapiens, UniProt P41595); assay type: functional
# Chain of 5-hydroxytryptamine receptor 2B (P41595 whole entry): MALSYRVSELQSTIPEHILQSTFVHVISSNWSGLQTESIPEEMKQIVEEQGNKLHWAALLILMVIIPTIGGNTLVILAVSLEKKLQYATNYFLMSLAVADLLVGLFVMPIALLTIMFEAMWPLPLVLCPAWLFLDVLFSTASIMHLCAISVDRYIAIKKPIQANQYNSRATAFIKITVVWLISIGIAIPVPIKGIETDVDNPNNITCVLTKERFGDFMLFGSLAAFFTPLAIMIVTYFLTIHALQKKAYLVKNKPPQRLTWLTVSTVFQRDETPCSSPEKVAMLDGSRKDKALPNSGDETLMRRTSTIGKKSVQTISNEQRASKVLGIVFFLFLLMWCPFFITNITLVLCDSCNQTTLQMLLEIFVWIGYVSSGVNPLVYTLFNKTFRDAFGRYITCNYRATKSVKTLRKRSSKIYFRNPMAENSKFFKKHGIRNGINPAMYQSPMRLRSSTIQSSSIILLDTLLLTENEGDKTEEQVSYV
# [3] = target: T2, C-C chemokine receptor type 1 (Homo sapiens, UniProt P32246)
# T2 sequence (P32246 whole entry): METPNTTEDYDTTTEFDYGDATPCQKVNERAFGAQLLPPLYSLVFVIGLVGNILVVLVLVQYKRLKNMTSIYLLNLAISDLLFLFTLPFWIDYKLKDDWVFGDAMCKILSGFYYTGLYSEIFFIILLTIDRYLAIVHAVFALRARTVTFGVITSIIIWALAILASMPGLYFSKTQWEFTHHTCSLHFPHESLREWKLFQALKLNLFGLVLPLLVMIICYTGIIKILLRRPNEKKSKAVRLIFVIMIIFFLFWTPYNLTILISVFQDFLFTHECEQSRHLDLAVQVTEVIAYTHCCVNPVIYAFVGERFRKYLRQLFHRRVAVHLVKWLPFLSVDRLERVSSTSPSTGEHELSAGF
# [4] = target: T3, Substance-K receptor (Homo sapiens, UniProt P21452)
# T3 sequence (P21452 whole entry): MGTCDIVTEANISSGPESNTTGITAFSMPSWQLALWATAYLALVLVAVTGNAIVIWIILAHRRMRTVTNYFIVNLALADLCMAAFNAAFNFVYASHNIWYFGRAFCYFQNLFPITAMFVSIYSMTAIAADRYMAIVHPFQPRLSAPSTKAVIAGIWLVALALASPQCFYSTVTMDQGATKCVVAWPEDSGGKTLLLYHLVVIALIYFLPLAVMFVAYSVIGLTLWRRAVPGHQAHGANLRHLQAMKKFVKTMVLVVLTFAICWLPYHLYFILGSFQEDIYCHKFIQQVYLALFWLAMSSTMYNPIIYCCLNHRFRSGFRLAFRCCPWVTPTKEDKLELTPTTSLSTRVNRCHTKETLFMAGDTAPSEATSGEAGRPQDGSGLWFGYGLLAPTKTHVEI
# [5] = target: Vasopressin V1a receptor (Homo sapiens, UniProt P37288)
# Chain of Vasopressin V1a receptor (P37288 whole entry): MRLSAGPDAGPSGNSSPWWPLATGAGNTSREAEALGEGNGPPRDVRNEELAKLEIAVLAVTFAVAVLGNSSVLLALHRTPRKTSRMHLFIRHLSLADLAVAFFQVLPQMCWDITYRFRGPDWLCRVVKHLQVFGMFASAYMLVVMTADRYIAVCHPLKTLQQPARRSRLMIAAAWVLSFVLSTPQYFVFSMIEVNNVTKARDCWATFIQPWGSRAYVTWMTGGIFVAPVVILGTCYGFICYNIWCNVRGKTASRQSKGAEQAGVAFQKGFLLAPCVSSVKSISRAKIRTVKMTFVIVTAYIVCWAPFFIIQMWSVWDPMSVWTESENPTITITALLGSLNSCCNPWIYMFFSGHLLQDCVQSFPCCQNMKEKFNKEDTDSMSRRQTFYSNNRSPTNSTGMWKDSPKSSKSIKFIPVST
# [6] = target: T4, 5-hydroxytryptamine receptor 2C (Homo sapiens, UniProt P28335)
# T4 sequence (P28335 whole entry): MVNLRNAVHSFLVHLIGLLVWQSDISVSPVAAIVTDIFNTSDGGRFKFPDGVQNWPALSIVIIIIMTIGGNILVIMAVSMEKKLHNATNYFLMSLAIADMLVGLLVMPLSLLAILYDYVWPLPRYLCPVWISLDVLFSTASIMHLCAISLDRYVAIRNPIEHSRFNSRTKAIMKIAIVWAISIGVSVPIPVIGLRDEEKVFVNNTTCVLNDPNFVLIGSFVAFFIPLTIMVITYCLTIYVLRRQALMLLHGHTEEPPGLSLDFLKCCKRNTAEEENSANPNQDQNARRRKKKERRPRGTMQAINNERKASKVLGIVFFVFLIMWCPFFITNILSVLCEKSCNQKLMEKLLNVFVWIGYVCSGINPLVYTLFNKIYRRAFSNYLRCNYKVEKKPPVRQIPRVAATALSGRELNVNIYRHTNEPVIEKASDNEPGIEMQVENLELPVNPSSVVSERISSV
# [7] = target: T5, Histamine H4 receptor (Homo sapiens, UniProt Q9H3N8); assay: biochemical; assay type: cell-based, HEK293
# T5 sequence (Q9H3N8 whole entry): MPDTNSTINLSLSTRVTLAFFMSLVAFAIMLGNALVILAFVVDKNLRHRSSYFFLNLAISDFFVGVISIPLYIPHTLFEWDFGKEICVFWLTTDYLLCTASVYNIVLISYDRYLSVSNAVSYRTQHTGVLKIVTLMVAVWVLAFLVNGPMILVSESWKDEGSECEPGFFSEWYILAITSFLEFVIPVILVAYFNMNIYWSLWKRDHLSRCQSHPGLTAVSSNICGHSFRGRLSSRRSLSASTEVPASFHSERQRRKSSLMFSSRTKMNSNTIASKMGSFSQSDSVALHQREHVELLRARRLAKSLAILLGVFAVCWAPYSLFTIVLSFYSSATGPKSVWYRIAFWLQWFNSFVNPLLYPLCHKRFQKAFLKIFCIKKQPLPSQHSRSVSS
# [8] = target: Histamine H4 receptor (Rattus norvegicus, UniProt Q91ZY1); assay: biochemical; assay type: cell-based, HEK293
# Chain of Histamine H4 receptor (Rattus norvegicus, UniProt Q91ZY1) (Q91ZY1 whole entry): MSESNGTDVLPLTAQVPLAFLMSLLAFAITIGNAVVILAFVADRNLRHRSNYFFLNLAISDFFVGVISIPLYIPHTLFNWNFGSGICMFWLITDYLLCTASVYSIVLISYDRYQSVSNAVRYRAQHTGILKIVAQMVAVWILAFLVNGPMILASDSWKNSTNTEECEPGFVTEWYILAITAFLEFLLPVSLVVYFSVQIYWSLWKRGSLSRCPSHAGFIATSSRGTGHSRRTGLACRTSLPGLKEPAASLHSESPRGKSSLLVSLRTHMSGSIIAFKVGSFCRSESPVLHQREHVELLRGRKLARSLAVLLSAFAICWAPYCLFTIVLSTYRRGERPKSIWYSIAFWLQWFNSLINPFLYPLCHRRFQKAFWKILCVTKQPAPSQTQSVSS
# [9] = target: Histamine H1 receptor (Homo sapiens, UniProt P35367)
# Chain of Histamine H1 receptor (P35367 whole entry): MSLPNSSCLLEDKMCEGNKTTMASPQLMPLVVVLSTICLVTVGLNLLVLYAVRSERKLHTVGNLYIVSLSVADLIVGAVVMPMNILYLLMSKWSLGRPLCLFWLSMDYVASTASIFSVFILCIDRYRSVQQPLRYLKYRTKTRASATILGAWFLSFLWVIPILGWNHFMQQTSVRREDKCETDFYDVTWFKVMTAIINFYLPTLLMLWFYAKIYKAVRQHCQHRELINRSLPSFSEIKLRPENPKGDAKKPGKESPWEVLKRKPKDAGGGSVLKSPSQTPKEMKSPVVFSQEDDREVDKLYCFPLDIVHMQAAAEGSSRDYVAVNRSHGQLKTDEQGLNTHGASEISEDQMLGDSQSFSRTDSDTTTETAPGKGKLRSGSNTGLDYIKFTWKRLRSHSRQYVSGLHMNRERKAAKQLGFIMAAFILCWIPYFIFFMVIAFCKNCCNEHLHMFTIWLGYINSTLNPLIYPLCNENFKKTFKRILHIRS
# [10] = target: Histamine H2 receptor (Homo sapiens, UniProt P25021)
# Chain of Histamine H2 receptor (P25021 whole entry): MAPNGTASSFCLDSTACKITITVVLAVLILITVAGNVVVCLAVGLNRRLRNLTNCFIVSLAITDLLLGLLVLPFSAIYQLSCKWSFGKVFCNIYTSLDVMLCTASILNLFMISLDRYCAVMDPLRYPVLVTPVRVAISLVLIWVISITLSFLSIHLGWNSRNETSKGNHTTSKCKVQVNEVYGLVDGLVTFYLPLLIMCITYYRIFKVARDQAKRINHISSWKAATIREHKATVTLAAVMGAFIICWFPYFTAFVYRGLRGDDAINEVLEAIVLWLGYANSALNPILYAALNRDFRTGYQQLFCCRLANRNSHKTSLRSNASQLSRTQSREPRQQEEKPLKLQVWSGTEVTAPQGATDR
# [11] = target: Histamine H3 receptor (Homo sapiens, UniProt Q9Y5N1)
# Chain of Histamine H3 receptor (Homo sapiens, UniProt Q9Y5N1) (Q9Y5N1 whole entry): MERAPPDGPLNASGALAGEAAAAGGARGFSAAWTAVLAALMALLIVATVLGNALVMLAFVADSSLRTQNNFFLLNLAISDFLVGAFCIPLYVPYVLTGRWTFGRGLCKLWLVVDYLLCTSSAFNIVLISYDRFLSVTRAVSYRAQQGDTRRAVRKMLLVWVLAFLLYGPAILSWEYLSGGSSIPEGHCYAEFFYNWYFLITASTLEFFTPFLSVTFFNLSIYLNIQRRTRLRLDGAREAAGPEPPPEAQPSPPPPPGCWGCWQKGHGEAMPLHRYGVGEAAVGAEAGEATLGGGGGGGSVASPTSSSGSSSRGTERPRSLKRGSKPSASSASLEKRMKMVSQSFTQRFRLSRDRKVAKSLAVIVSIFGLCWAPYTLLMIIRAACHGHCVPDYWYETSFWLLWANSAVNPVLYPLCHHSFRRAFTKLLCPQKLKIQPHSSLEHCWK
# [12] = target: Histamine H3 receptor (Rattus norvegicus, UniProt Q9QYN8)
# Chain of Histamine H3 receptor (Rattus norvegicus, UniProt Q9QYN8) (Q9QYN8 whole entry): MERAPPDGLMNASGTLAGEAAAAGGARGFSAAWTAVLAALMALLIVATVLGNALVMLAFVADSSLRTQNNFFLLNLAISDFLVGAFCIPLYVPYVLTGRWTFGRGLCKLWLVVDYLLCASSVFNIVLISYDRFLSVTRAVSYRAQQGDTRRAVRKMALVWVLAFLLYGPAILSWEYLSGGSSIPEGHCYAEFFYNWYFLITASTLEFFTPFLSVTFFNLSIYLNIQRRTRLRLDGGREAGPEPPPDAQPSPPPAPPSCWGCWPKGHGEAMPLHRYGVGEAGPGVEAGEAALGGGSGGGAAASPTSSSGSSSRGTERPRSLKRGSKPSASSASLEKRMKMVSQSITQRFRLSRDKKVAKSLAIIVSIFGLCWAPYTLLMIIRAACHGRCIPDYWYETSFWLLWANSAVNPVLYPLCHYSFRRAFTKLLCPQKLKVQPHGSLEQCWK
# [13] = species: Mus musculus; assay: animal or person; assay type: functional; details: CD-1(ICR), ip
# [14] = species: Mus musculus; assay type: functional, organism-based, BALB/c
# [15] = species: Rattus norvegicus; assay: animal or person; assay type: functional; details: ip
# [16] = target: T5, Histamine H4 receptor; details: HEK293
# [17] = target: Histamine H4 receptor (Rattus norvegicus) (UniProt Q91ZY1)
# Chain of Histamine H4 receptor (Rattus norvegicus) (Q91ZY1 whole entry): as the sequence (Q91ZY1 whole entry) above
# [18] = target: T6, Histamine H4 receptor (Mus musculus) (UniProt Q91ZY2)
# T6 sequence (whole entry): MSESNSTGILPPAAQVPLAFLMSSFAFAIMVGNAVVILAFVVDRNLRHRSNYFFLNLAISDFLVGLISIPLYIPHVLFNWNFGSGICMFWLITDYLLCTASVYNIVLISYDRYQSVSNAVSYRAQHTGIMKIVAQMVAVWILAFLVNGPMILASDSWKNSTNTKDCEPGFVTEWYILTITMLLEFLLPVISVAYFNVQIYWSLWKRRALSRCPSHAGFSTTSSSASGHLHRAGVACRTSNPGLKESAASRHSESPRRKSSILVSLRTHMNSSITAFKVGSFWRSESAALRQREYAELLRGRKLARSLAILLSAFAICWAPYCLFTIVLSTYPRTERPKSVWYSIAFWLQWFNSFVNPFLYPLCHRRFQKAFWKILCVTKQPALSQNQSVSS
# [19] = species: Mus musculus; details: CD-1(ICR), in vivo, ip, 0.3 umol/kg
# [20] = species: Rattus norvegicus; details: in vivo, ip, 30 umol/kg
# [21] = species: Rattus norvegicus; details: in vivo, ip, 100 umol/kg
# [22] = in vivo; details: Sprague-Dawley, rat, ip, 10 mg/kg
# [23] = in vivo; details: Sprague-Dawley, rat, ip, 10 mg/kg; remark: listed apart in the source
# [24] = in vivo; details: Sprague-Dawley, rat, ip, 10 mg/kg; remark: listed apart in the source
# [25] = in vivo; details: Sprague-Dawley, rat, ip, 10 mg/kg; remark: listed apart in the source
# [26] = in vivo; details: Sprague-Dawley, rat, po, 10 mg/kg
# [27] = in vivo; details: Sprague-Dawley, rat, po, 10 mg/kg; remark: listed apart in the source
# [28] = in vivo; details: Sprague-Dawley, rat, po, 10 mg/kg; remark: listed apart in the source
# [29] = in vivo; details: Sprague-Dawley, rat, po, 10 mg/kg; remark: listed apart in the source
# [30] = in vitro; details: Sprague-Dawley, rat, plasma
# [31] = target: T7, Muscarinic acetylcholine receptor M5 (Homo sapiens, UniProt P08912)
# T7 sequence (P08912 whole entry): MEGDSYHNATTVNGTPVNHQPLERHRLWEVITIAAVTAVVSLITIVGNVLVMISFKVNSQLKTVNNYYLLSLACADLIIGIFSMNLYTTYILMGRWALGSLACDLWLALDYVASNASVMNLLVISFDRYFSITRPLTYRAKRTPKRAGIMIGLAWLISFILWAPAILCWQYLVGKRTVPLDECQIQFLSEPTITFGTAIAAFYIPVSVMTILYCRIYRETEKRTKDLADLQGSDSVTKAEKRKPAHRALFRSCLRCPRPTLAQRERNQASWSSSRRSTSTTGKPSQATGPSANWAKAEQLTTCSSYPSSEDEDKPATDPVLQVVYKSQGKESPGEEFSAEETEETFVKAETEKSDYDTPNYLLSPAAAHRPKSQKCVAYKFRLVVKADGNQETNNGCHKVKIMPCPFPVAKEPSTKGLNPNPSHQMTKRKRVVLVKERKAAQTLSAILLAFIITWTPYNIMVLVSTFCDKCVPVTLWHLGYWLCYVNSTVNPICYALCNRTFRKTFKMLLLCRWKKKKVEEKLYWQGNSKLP
# [32] = target: Small conductance calcium-activated potassium channel protein 1 (Homo sapiens, UniProt Q92952)
# Chain of Small conductance calcium-activated potassium channel protein 1 (Q92952 whole entry): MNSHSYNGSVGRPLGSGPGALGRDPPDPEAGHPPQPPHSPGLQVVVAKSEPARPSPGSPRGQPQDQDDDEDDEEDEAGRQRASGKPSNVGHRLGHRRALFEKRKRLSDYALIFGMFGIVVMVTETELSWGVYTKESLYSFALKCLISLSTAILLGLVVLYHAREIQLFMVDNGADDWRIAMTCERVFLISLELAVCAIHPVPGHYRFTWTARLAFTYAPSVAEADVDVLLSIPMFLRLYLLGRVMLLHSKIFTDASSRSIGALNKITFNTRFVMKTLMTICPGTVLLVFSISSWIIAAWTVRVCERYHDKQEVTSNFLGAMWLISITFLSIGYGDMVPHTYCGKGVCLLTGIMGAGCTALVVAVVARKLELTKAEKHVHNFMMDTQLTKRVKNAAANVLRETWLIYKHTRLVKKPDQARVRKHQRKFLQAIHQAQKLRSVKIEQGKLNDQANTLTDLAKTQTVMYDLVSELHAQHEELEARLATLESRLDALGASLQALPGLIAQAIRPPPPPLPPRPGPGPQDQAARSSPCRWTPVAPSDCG
# [33] = target: T4, 5-hydroxytryptamine receptor 2C; remark: listed apart in the source
smiles,measurement,setting,value
CCCCC[C@H](O)/C=C/[C@H]1C2COC(C2)[C@@H]1C/C=C\CCCC(=O)O (some centres not stated),IC50,[1],37 nM
same,Ki,[1],16 nM
COc1cc(CC(C)N)c(OC)cc1I (racemic),IC50,[2],3.5 nM
same,Ki,[2],3.5 nM
Nc1nc2c(c(N3CCNCC3)n1)CCC1=C2[C@@H]2CCCC[C@@H]2O1 (relative stereo),IC50,[3],0.087 nM
same,Ki,[3],0.043 nM
same,IC50,[4],5.7 nM
same,Ki,[4],3.1 nM
same,IC50,[5],3.9 nM
same,Ki,[5],2.4 nM
same,IC50,[6],11700 nM
same,Ki,[7],5.75 nM
same,Ki,[8],3.39 nM
same,Ki,[9],3550 nM
same,Ki,[10],> 9120 nM
same,Ki,[11],933 nM
same,Ki,[12],13.5 nM
same,ED50,[13],0.36 µmol/kg
same,IC50,[14],125 µmol/kg
same,ED50,[15],42 µmol/kg
same,pKb,[16],8.33
same,pKb,[17],8.3
same,pKb,[18],8.2
same,Cp,[19],15 ng/mL
same,Cp,[20],610 ng/mL
same,Cp,[21],2900 ng/mL
same,bioavailability,[22],72%
same,half-life,[23],4.7 h
same,Cmax,[24],1730 nM
same,Tmax,[25],0.25 h
same,bioavailability,[26],26%
same,half-life,[27],3.7 h
same,Cmax,[28],300 nM
same,Tmax,[29],1.5 h
same,fraction unbound,[30],0.41
C[N+]1(C)CCC(OC(=O)C(c2ccccc2)c2ccccc2)CC1 [4-DAMP],IC50,[31],0.83 nM
same,Ki,[31],0.42 nM
CC(C)C[C@@H]1NC(=O)[C@H](C)NC(=O)[C@H]([C@@H](C)O)NC(=O)[C@H](CCC(=O)O)NC(=O)[C@@H]2CCCN2C(=O)[C@H](C)NC(=O)[C@H](CCCCN)NC(=O)[C@@H]2CSSC[C@@H](C(=O)N[C@@H](CCC(N)=O)C(=O)N[C@@H](CCC(N)=O)C(=O)N[C@@H](Cc3cnc[nH]3)C(N)=O)NC(=O)[C@H](CCCNC(=N)N)NC(=O)[C@H](CCCNC(=N)N)NC(=O)[C@H](C)NC(=O)[C@H](CSSC[C@H](N)C(=O)N[C@@H](CC(N)=O)C(=O)N2)NC1=O [APAMIN],IC50,[32],0.014 nM
same,Ki,[32],0.0068 nM
CN1CCN(C(=O)c2cc3cc(Cl)ccc3[nH]2)CC1 [JNJ-7777120],Ki,[10],> 8510 nM
"COc1cc(OC)c(C(=O)CCCCN2CCC3(CC2)NC(=O)NC3=O)cc1NS(=O)(=O)c1ccc(C(F)(F)F)cc1 [RS-102,221]",IC50,[33],8.3 nM
same,Ki,[33],3.9 nM

# From ChEMBL document CHEMBL1140203, “cis-4-(Piperazin-1-yl)-5,6,7a,8,9,10,11,11a-octahydrobenzofuro[2,3-h]quinazolin-2-amine (A-987306), a new histamine H4R antagonist that blocks pain responses against carrageenan-induced hyperalgesia” (J Med Chem, 2008)
